In patent publication US20250171431A1, “HETEROCYCLIC INHIBITORS OF IGF-1R FOR TREATMENT OF DISEASE” (HORIZON THERAPEUTICS IRELAND DAC, priority 2023, published 2025) one finds IC50 data, which are given here for 25 compounds.

By IC50 is commonly meant the concentration that inhibits the measured activity by half.

SMILES strings stand for the structures.

Assay [1] addresses T1, IGF-1R (Homo sapiens (Human), UniProt P08069). Description: Example B-1: IGF-1R Assay (PC3 cells, IGF1 stimulation, AlphaLISA). In kind it is cell-based. Conditions: 200 ng/mL IGF1 stimulation, read-out: Biological Activity against IGF-1R IC50. The procedure, abridged: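 Readout is AlphaLISA signal from lysed PC3 cells, expressed as % inhibition versus vehicle and EC80 controls and banded by IC50. Before lysis, the cells were starved of serum for 2 h, exposed to 3× serially diluted compound for 2 h, and stimulated for 30 min with 200 ng/mL IGF1 (final).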
In general terms: In Alpha technology, singlet oxygen from a donor bead excites a nearby acceptor bead.
Target sequence in this assay (P08069 31-1367): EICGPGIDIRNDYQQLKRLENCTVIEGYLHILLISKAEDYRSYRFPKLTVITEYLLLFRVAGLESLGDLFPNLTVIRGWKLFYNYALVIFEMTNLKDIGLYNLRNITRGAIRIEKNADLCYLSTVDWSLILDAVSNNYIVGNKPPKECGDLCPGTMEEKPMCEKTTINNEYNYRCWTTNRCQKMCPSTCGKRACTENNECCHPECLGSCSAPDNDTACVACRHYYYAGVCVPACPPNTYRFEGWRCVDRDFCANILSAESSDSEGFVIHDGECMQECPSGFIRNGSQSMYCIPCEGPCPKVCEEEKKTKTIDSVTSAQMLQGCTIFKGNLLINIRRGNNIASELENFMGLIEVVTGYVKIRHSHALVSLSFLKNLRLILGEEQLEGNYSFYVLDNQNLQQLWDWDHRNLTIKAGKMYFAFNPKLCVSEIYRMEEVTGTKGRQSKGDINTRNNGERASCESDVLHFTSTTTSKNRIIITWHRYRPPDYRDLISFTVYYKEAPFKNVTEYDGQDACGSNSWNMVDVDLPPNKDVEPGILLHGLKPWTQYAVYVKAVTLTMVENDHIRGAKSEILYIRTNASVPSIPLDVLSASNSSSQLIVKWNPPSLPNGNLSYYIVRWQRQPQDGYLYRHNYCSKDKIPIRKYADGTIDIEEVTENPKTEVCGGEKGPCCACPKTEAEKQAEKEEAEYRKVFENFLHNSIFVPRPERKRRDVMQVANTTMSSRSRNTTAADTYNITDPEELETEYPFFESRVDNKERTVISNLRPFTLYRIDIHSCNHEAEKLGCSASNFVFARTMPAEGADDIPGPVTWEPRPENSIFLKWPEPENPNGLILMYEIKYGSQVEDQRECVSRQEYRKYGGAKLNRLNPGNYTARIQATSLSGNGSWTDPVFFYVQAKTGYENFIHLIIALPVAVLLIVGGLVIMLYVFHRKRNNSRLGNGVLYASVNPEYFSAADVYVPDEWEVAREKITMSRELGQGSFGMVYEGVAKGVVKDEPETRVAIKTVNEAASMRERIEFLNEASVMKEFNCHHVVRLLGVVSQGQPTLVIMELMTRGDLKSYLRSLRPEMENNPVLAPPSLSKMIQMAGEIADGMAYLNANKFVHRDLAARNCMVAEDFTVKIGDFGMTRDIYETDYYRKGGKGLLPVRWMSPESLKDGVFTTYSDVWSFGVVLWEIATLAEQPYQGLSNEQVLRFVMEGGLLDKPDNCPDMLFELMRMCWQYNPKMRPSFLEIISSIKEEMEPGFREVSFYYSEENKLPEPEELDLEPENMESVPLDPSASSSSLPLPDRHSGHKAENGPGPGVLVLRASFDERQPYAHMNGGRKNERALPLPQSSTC

Assay [2] addresses T1, IGF-1R. Description: Example B-2: IGF-1R Assay (PathHunter cell lines, EC80 agonist challenge). Format: cell-based. The note with it: read-out: IC50 (Biological Activity against IGF-1R). The protocol:
PathHunter cell lines were expanded from freezer stocks according to standard procedures. Cells were seeded in a total volume of 20 μL into white walled, 384-well microplates and incubated for the appropriate time prior to testing.
Cells are pre-incubated with compound followed by EC80 agonist challenge as follows: • 1. Intermediate dilution of sample stocks was performed to generate 5× sample in assay buffer. • 2. 5 μL of 5× sample was added to cells and incubated at 37° C. for 60 minutes. Vehicle concentration was 1%. • 3. 5 μL of 6×EC80 agonist in assay buffer was added to the cells and incubated at room temperature for 3 hours.
Assay signal was generated through a single addition of 12.5 or 15 μL (50% v/v) of PathHunter Detection reagent cocktail for agonist and antagonist assays respectively, followed by a one hour incubation at room temperature. Microplates were read following signal generation with a PerkinElmer Envision™ instrument for chemilumine-scent signal detection.
Compound activity was analyzed using CBIS data analysis suite (ChemInnovation, CA). Percentage inhibition was calculated using the following formula: % Inhibition=100%×(1−(mean RLU of test sample−mean RLU of vehicle control)/(mean RLU of EC80 control−mean RLU of vehicle control)). The activity for representative examples of the invention is shown in the following table, wherein A: IC50≤500 nM; B: 500 nM<IC50≤2 μM; C: […]≤10 μM; D: IC50>[…].
Target sequence in this assay (P08069 31-1367, species assumed): as the sequence (P08069 31-1367) above

On to `COc1cc(Nc2nccc(Nc3cnc4ccc(Cl)cc4c3)n2)ccc1O[C@H]1C[C@H](N(C)C)C1` [Compound 195, 4-(6-chloro-3-quinolylamino)-2-{3-methoxy-4-[(1r,3r)-3-(dimethylamino)cyclobutoxy]phenylamino}pyrimidine], for which the IC50 on IGF-1R [1] and on IGF-1R [2] was not above 0.5 µM in each case.

Regarding `CN(C)CC(=O)N1CCc2ccc(Nc3nccc(Nc4cnc5ccc(Br)cc5c4)n3)cc21` [Compound 130, 1-(6-((4-((6-bromoquinolin-3-yl)amino)pyrimidin-2-yl)amino)indolin-1-yl)-2-(dimethylamino)ethan-1-one], the IC50 at IGF-1R [1] and on IGF-1R [2] was not above 0.5 µM throughout.

On to `c1ccc2ncc(Nc3ccnc(Nc4ccc5ccn(CC6CCCC6)c5c4)n3)cc2c1` [Compound 502, 2-[1-(cyclopentylmethyl)-6-indolylamino]-4-(3-quinolylamino)pyrimidine], for which the IC50 on IGF-1R [1] and on IGF-1R [2] was not above 0.5 µM throughout.

Take `CN(C)CC(=O)N1CCc2cc(Nc3nccc(Nc4cnc5cc(F)c(F)cc5c4)n3)cnc21` [Compound 498, 1-{5-[4-(6,7-difluoro-3-quinolylamino)-2-pyrimidinylamino]-1,7-diaza-1-indanyl}-2-(dimethylamino)-1-ethanone]: the IC50 at IGF-1R [1] and on IGF-1R [2] was 0.5 to 2 µM each time.

As for `COc1cc(Nc2nccc(Nc3cc4cccc(F)c4[nH]c3=O)n2)cnc1C1CCNCC1` [Compound 223, 8-fluoro-3-{2-[5-methoxy-6-(4-piperidyl)-3-pyridylamino]-4-pyrimidinylamino}-1,2-dihydro-2-quinolinone], the figures for the half-inhibitory concentration (IC50) at IGF-1R [1] and at IGF-1R [2] were not above 0.5 µM and 0.5 to 2 µM, respectively.

`CN1CC(N2CCc3ccc(Nc4nccc(Nc5cnc6ccccc6c5)n4)cc32)C1` [Compound 139, N2-(1-(1-methylazetidin-3-yl)indolin-6-yl)-N4-(quinolin-3-yl)pyrimidine-2,4-diamine]: the 50% inhibitory concentration (IC50) at IGF-1R [1] and on IGF-1R [2] was not above 0.5 µM throughout.

Consider `COc1cc(Nc2nccc(Nc3cc4cccc(F)c4[nH]c3=O)n2)cnc1N1CCC(C)(O)CC1` [Compound 159, 8-fluoro-3-((2-((6-(4-hydroxy-4-methylpiperidin-1-yl)-5-methoxypyridin-3-yl)amino)pyrimidin-4-yl)amino)quinolin-2(1H)-one], for which the figures for the IC50 on IGF-1R [1] and on IGF-1R [2] were not above 0.5 µM and 0.5 to 2 µM, respectively.

Consider `COc1cc([C@H]2CC[C@](C)(O)CC2)ccc1Nc1nccc(Nc2cc3cccc(F)c3[nH]c2=O)n1` [Compound 215, 8-fluoro-3-(2-{2-methoxy-4-[(1s,4s)-4-hydroxy-4-methylcyclohexyl]phenylamino}-4-pyrimidinylamino)-1,2-dihydro-2-quinolinone], for which the half-inhibitory concentration (IC50) at IGF-1R [1] and at IGF-1R [2] was not above 0.5 µM in each case.

On to `CN(C)C[C@@H]1COc2cc(Nc3nccc(Nc4cnc5ccc(Cl)cc5c4)n3)ccc2O1` [Compound 145, (R)—N4-(6-chloroquinolin-3-yl)-N2-(2-((dimethylamino)methyl)-2,3-dihydrobenzo[b][1,4]dioxin-6-yl)pyrimidine-2,4-diamine], for which the IC50 on IGF-1R [1] and on IGF-1R [2] was not above 0.5 µM throughout.

Turning to `CN(C)CC1COc2cc(Nc3nccc(Nc4cnc5cc(F)c(F)cc5c4)n3)ccc2O1` (centres unmarked) [Compound 169, 4-(6,7-difluoro-3-quinolylamino)-2-{2-[(dimethylamino)methyl]-2,3-dihydro-1,4-benzodioxin-6-ylamino}pyrimidine], the IC50 on IGF-1R [1] and at IGF-1R [2] was not above 0.5 µM each time.

For the compound `COc1cc(C2CCOCC2)ccc1Nc1nccc(Nc2cc3cccc(F)c3[nH]c2=O)n1` [Compound 220, 8-fluoro-3-{2-[2-methoxy-4-(tetrahydro-2H-pyran-4-yl)phenylamino]-4-pyrimidinylamino}-1,2-dihydro-2-quinolinone], the IC50 was not above 0.5 µM on IGF-1R [1] and 0.5 to 2 µM at IGF-1R [2].

Consider `COc1cc(N2CCNC3(CC3)C2)ncc1Nc1nccc(Nc2cc3cccc(F)c3[nH]c2=O)n1` [Compound 221, 3-(2-{6-(4,7-diaza-7-spiro[2.5]octyl)-4-methoxy-3-pyridylamino}-4-pyrimidinylamino)-8-fluoro-1,2-dihydro-2-quinolinone], for which the figures for the IC50 at IGF-1R [1] and on IGF-1R [2] were not above 0.5 µM and 0.5 to 2 µM, respectively.

In the case of `COc1cc(N2CCNC3(CC3)C2)ncc1Nc1nccc(Nc2cnc3ccc(Cl)cc3c2)n1` [Compound 496, 4-(6-chloro-3-quinolylamino)-2-{6-(4,7-diaza-7-spiro[2.5]octyl)-4-methoxy-3-pyridylamino}pyrimidine], the IC50 was not above 0.5 µM at IGF-1R [1] and 0.5 to 2 µM at IGF-1R [2].

For `COc1cc(Nc2nccc(Nc3cnc4cc(F)c(F)cc4c3)n2)ccc1O[C@H]1C[C@@H](N(C)C)C1` [Compound 115, 4-(6,7-difluoro-3-quinolylamino)-2-{3-methoxy-4-[(1s,3s)-3-(dimethylamino)cyclobutoxy]phenylamino}pyrimidine], the IC50 was not above 0.5 µM on IGF-1R [1] and 0.5 to 2 µM at IGF-1R [2].

`CN(C)CC(=O)N1CCc2ncc(Nc3nccc(Nc4cnc5ccc(Cl)cc5c4)n3)cc21` [Compound 141, 1-(6-((4-((6-chloroquinolin-3-yl)amino)pyrimidin-2-yl)amino)-2,3-dihydro-1H-pyrrolo[3,2-b]pyridin-1-yl)-2-(dimethylamino)ethan-1-one]: the IC50 at IGF-1R [1] and on IGF-1R [2] was not above 0.5 µM in each case.

Regarding `CN(C)CC1COc2cc(Nc3nccc(Nc4cnc5ccc(Cl)cc5c4)n3)cnc2O1` (centres unmarked) [Compound 177, 4-(6-chloro-3-quinolylamino)-2-{3-[(dimethylamino)methyl]-2,3-dihydro-1,4-dioxa-5-aza-7-naphthylamino}pyrimidine], the IC50 at IGF-1R [1] and at IGF-1R [2] was not above 0.5 µM throughout.

On to `CN(C)CC1COc2ccc(Nc3nccc(Nc4cnc5ccccc5c4)n3)cc2O1` (centres unmarked) [Compound 140, N2-(3-((dimethylamino)methyl)-2,3-dihydrobenzo[b][1,4]dioxin-6-yl)-N4-(quinolin-3-yl)pyrimidine-2,4-diamine], for which the 50% inhibitory concentration (IC50) at IGF-1R [1] and at IGF-1R [2] was not above 0.5 µM in each case.

For the compound `CN(C)CC(=O)N1CCc2ccc(Nc3nccc(Nc4cnc5ccc(Cl)cc5c4)n3)cc21` [Compound 129, 1-(6-((4-((6-chloroquinolin-3-yl)amino)pyrimidin-2-yl)amino)indolin-1-yl)-2-(dimethylamino)ethan-1-one], the IC50 at IGF-1R [1] and at IGF-1R [2] was not above 0.5 µM throughout.

`CN(C)CC1CN(C)c2cc(Nc3nccc(Nc4cnc5cc(F)c(F)cc5c4)n3)ccc2O1` (centres unmarked) [Compound 148, N4-(6,7-difluoroquinolin-3-yl)-N2-(2-((dimethylamino)methyl)-4-methyl-3,4-dihydro-2H-benzo[b][1,4]oxazin-6-yl)pyrimidine-2,4-diamine]: the IC50 at IGF-1R [1] and at IGF-1R [2] was not above 0.5 µM each time.

Turning to `COc1cc(N2CCNC(C(F)F)C2)ncc1Nc1nccc(Nc2cc3cccc(F)c3[nH]c2=O)n1` (centres unmarked) [Compound 218, 3-(2-{6-[3-(difluoromethyl)-1-piperazinyl]-4-methoxy-3-pyridylamino}-4-pyrimidinylamino)-8-fluoro-1,2-dihydro-2-quinolinone], the 50% inhibitory concentration (IC50) on IGF-1R [1] is not above 0.5 µM; at IGF-1R [2], 0.5 to 2 µM.

For `Clc1ccc2ncc(Nc3ccnc(Nc4ccc5c(c4)OCCO5)n3)cc2c1` [Compound 170, 4-(6-chloro-3-quinolylamino)-2-(2,3-dihydro-1,4-benzodioxin-6-ylamino)pyrimidine], the IC50 at IGF-1R [1] and on IGF-1R [2] was 0.5 to 2 µM in each case.

In the case of `CN(C)CC(=O)N1CCc2cc(Nc3nccc(Nc4cnc5ccc(Cl)cc5c4)n3)ccc21` [Compound 146, 1-(5-((4-((6-chloroquinolin-3-yl)amino)pyrimidin-2-yl)amino)indolin-1-yl)-2-(dimethylamino)ethan-1-one], the IC50 on IGF-1R [1] and on IGF-1R [2] was not above 0.5 µM in each case.

Take `COc1cc(C2CCN(CC#N)CC2)ncc1Nc1nccc(Nc2cc3cccc(F)c3[nH]c2=O)n1` [Compound 211, (4-{5-[4-(8-fluoro-2-oxo-1,2-dihydro-3-quinolylamino)-2-pyrimidinylamino]-4-methoxy-2-pyridyl}-1-piperidyl)acetonitrile]: the IC50 on IGF-1R [1] and at IGF-1R [2] was not above 0.5 µM throughout.

Regarding `COc1cc(Nc2nccc(Nc3cnc4ccc(Cl)nc4c3)n2)ccc1O[C@H]1C[C@@H](N(C)C)C1` [Compound 10, 4-(6-chloro-1,5-diaza-3-naphthylamino)-2-{3-methoxy-4-[(1s,3s)-3-(dimethylamino)cyclobutoxy]phenylamino}pyrimidine], the IC50 was not above 0.5 µM at IGF-1R [1] and 0.5 to 2 µM on IGF-1R [2].

Take `CN1CCOc2ccc(Nc3nccc(Nc4cnc5cc(F)c(F)cc5c4)n3)cc21` [Compound 150, N4-(6,7-difluoroquinolin-3-yl)-N2-(4-methyl-3,4-dihydro-2H-benzo[b][1,4]oxazin-6-yl)pyrimidine-2,4-diamine]: the IC50 at IGF-1R [1] and on IGF-1R [2] was 0.5 to 2 µM each time.
